In ChEMBL document CHEMBL1146518, “Phenolic metabolites of Dalea versicolor that enhance antibiotic activity against model pathogenic bacteria” (2004):
Converted amounts (≈) assume the structure as drawn. The source made the active and inactive calls. No cut-off for these calls is given here.

Key:
[1] = system: Bacillus cereus; assay: Inhibition of NorA MDR efflux pump in Bacillus cereus assessed as fold increase in antimicrobial activity of berberine at 10 ug/ml after 24 hrs by twofold serial dilution method
[2] = system: Staphylococcus aureus; assay: Antimicrobial activity against Staphylococcus aureus after 18 hrs by serial twofold dilution test; type: functional
[3] = molecular target: T1, Quinolone resistance protein NorA (Staphylococcus aureus) (UniProt P0A0J7); assay: Inhibition of NorA MDR efflux pump in Staphylococcus aureus assessed as increase in antimicrobial activity of erythromycin at 10 ug/ml after 18 hrs by twofold serial dilution method
T1 sequence (whole entry): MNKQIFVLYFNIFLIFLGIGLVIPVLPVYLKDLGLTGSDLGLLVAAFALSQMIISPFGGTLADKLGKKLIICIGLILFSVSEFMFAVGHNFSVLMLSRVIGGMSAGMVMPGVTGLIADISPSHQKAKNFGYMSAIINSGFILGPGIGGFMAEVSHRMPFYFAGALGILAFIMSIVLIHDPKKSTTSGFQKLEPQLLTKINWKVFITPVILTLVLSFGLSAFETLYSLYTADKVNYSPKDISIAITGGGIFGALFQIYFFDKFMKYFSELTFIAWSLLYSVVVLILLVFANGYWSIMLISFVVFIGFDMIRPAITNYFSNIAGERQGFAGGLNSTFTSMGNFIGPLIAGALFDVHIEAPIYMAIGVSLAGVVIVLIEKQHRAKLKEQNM

[4] = molecular target: T1, Quinolone resistance protein NorA (Staphylococcus aureus); assay: Inhibition of NorA MDR efflux pump in Staphylococcus aureus assessed as increase in antimicrobial activity of tetracycline at 10 ug/ml after 18 hrs by twofold serial dilution method
[5] = molecular target: T1, Quinolone resistance protein NorA (Staphylococcus aureus); assay: Inhibition of NorA MDR efflux pump in Staphylococcus aureus assessed as increase in antimicrobial activity of berberine at 10 ug/ml after 18 hrs by twofold serial dilution method

fold change (FC) [1]	MIC [2] [µg/mL]	Activity [3]	Activity [4]	Activity [5]	Compound
30	250 (≈ 838 µM)	Active	Active	Active	COc1c(C)c(O)c(C)c(O)c1C(=O)/C=C/c1ccccc1
–	7.8 (≈ 18.4 µM)	–	–	–	C=CC(C)(C)c1cc([C@@H]2CC(=O)c3c(O)cc(O)c(CC=C(C)C)c3O2)c(O)cc1O
–	31.3 (≈ 73.7 µM)	–	–	–	C=CC(C)(C)c1cc(C2COc3c(CC=C(C)C)c(O)cc(O)c3C2=O)c(O)cc1O (stereo not drawn) [DALVERSINOL A]

Compound	fold change (FC) [1]	MIC [2] [µg/mL]	Activity [3]	Activity [4]	Activity [5]
COc1ccc(/C=C/c2cc(OC)cc(OC)c2)cc1 [TRISMETHOXYRESVERATROL]	–	500 (≈ 1850 µM)	–	–	–
